Test results reported in PubChem BioAssay AID1259407 (Chemical Carcinogenesis Research Information System (CCRIS), 2018).
Active and inactive are the calls of the source. No rule for the calls is given here.

Tested on: CCRIS mutagenicity, Ames/micronucleus/aberration tests
Test: CCRIS mutagenicity studies
Source text: The CCRIS database contains chemical records with carcinogenicity, mutagenicity, tumor promotion, and tumor inhibition test results. It was developed by the National Cancer Institute (NCI). Data are derived from studies cited in primary journals, current awareness tools, NCI reports, and other sources. Test results have been reviewed by experts in carcinogenesis and mutagenesis.
CCRIS provides historical information from the years 1985 - 2011. It is no longer updated.
This is an archive assay for CCRIS mutagenicity studies.

[1] = Test System: AMES SALMONELLA TYPHIMURIUM, Strain/Indicator: TA97, Metabolic Activation: HAMSTER, LIVER, S-9, AROCLOR 1254 (10 OR 30%), Method: PREINCUBATION
[2] = Test System: AMES SALMONELLA TYPHIMURIUM, Strain/Indicator: TA97, Metabolic Activation: NONE, Method: PREINCUBATION
[3] = Test System: AMES SALMONELLA TYPHIMURIUM, Strain/Indicator: TA97, Metabolic Activation: RAT, LIVER, S-9, AROCLOR 1254 (10 OR 30%), Method: PREINCUBATION
[4] = Test System: AMES SALMONELLA TYPHIMURIUM, Strain/Indicator: TA98, Metabolic Activation: HAMSTER, LIVER, S-9, AROCLOR 1254 (10 OR 30%), Method: PREINCUBATION
[5] = Test System: AMES SALMONELLA TYPHIMURIUM, Strain/Indicator: TA98, Metabolic Activation: NONE, Method: PREINCUBATION
[6] = Test System: AMES SALMONELLA TYPHIMURIUM, Strain/Indicator: TA98, Metabolic Activation: RAT, LIVER, S-9, AROCLOR 1254 (10 OR 30%), Method: PREINCUBATION
[7] = Test System: AMES SALMONELLA TYPHIMURIUM, Strain/Indicator: TA100, Metabolic Activation: NONE, Method: PREINCUBATION
[8] = Test System: AMES SALMONELLA TYPHIMURIUM, Strain/Indicator: TA100, Metabolic Activation: NONE, Method: STANDARD PLATE
[9] = Test System: AMES SALMONELLA TYPHIMURIUM, Strain/Indicator: TA100, Metabolic Activation: RAT, LIVER, S-9, AROCLOR 1254, Method: STANDARD PLATE
[10] = Test System: AMES SALMONELLA TYPHIMURIUM, Strain/Indicator: TA1535, Metabolic Activation: HAMSTER, LIVER, S-9, AROCLOR 1254 (10 OR 30%), Method: PREINCUBATION
[11] = Test System: AMES SALMONELLA TYPHIMURIUM, Strain/Indicator: TA1535, Metabolic Activation: NONE, Method: PREINCUBATION
[12] = Test System: AMES SALMONELLA TYPHIMURIUM, Strain/Indicator: TA1535, Metabolic Activation: RAT, LIVER, S-9, AROCLOR 1254 (10 OR 30%), Method: PREINCUBATION

ClC1=C(Cl)[C@]2(Cl)[C@H]3[C@H]([C@@H]4C=C[C@H]3C4)[C@@]1(Cl)C2(Cl)Cl
mutagenic call [1]: inactive; negative
mutagenic call [2]: inactive; negative
mutagenic call (Test System: AMES SALMONELLA TYPHIMURIUM, Strain/Indicator: TA97, Metabolic Activation: NONE, Method: STANDARD PLATE): inactive; negative
mutagenic call [3]: inactive; negative
mutagenic call (Test System: AMES SALMONELLA TYPHIMURIUM, Strain/Indicator: TA97, Metabolic Activation: RAT, LIVER, S-9, AROCLOR 1254, Method: STANDARD PLATE): inactive; negative
mutagenic call [4]: inactive; negative
mutagenic call [5]: inactive; negative
mutagenic call (Test System: AMES SALMONELLA TYPHIMURIUM, Strain/Indicator: TA98, Metabolic Activation: NONE, Method: STANDARD PLATE): inactive; negative
mutagenic call [6]: inactive; negative
mutagenic call (Test System: AMES SALMONELLA TYPHIMURIUM, Strain/Indicator: TA98, Metabolic Activation: RAT, LIVER, S-9, AROCLOR 1254, Method: STANDARD PLATE): inactive; negative
mutagenic call (Test System: AMES SALMONELLA TYPHIMURIUM, Strain/Indicator: TA100, Metabolic Activation: HAMSTER, LIVER, S-9, AROCLOR 1254 (10 OR 30%), Method: PREINCUBATION): inactive; negative
mutagenic call [7]: inactive; negative
mutagenic call [8]: inactive; negative
mutagenic call (Test System: AMES SALMONELLA TYPHIMURIUM, Strain/Indicator: TA100, Metabolic Activation: RAT, LIVER, S-9, AROCLOR 1254 (10 OR 30%), Method: PREINCUBATION): inactive; negative
mutagenic call [9]: inactive; negative
mutagenic call (Test System: AMES SALMONELLA TYPHIMURIUM, Strain/Indicator: TA102, Metabolic Activation: NONE, Method: STANDARD PLATE): inactive; negative
mutagenic call (Test System: AMES SALMONELLA TYPHIMURIUM, Strain/Indicator: TA102, Metabolic Activation: RAT, LIVER, S-9, AROCLOR 1254, Method: STANDARD PLATE): inactive; negative
mutagenic call [10]: inactive; negative
mutagenic call [11]: inactive; negative
mutagenic call [12]: inactive; negative
mutagenic call (Test System: AMES SALMONELLA TYPHIMURIUM, Strain/Indicator: TA1537, Metabolic Activation: HAMSTER, LIVER, S-9, AROCLOR 1254 (30%), Method: PREINCUBATION): inactive; negative
mutagenic call (Test System: AMES SALMONELLA TYPHIMURIUM, Strain/Indicator: TA1537, Metabolic Activation: NONE, Method: PREINCUBATION): inactive; negative
mutagenic call (Test System: AMES SALMONELLA TYPHIMURIUM, Strain/Indicator: TA1537, Metabolic Activation: RAT, LIVER, S-9, AROCLOR 1254 (30%), Method: PREINCUBATION): inactive; negative

O=C(O)c1cc2c(c3c1c([N+](=O)[O-])cc1c(O)cccc13)OCO2
mutagenic call [8]: active; positive
mutagenic call [9]: inactive; negative
mutagenic call (Test System: AMES SALMONELLA TYPHIMURIUM, Strain/Indicator: TA1537, Metabolic Activation: NONE, Method: STANDARD PLATE): active; positive
mutagenic call (Test System: AMES SALMONELLA TYPHIMURIUM, Strain/Indicator: TA1537, Metabolic Activation: RAT, LIVER, S-9, AROCLOR 1254, Method: STANDARD PLATE): inactive; negative

Cc1ccc(S(=O)(=O)OCc2ccc([N+](=O)[O-])cc2)cc1
mutagenic call [8]: active; positive

CCOc1ccccc1N
mutagenic call [1]: inactive; negative
mutagenic call [2]: inactive; negative
mutagenic call [3]: inactive; negative
mutagenic call [4]: inactive; negative
mutagenic call [5]: inactive; negative
mutagenic call [6]: inactive; negative
mutagenic call (Test System: AMES SALMONELLA TYPHIMURIUM, Strain/Indicator: TA100, Metabolic Activation: HAMSTER, LIVER, S-9, AROCLOR 1254 (10%), Method: PREINCUBATION): inactive; negative
mutagenic call (Test System: AMES SALMONELLA TYPHIMURIUM, Strain/Indicator: TA100, Metabolic Activation: HAMSTER, LIVER, S-9, AROCLOR 1254 (30%), Method: PREINCUBATION): inactive; negative
mutagenic call [7]: inactive; negative
mutagenic call (Test System: AMES SALMONELLA TYPHIMURIUM, Strain/Indicator: TA100, Metabolic Activation: RAT, LIVER, S-9, AROCLOR 1254 (10%), Method: PREINCUBATION): inactive; negative
mutagenic call (Test System: AMES SALMONELLA TYPHIMURIUM, Strain/Indicator: TA100, Metabolic Activation: RAT, LIVER, S-9, AROCLOR 1254 (30%), Method: PREINCUBATION): inactive; negative
mutagenic call [10]: inactive; negative
mutagenic call [11]: inactive; negative
mutagenic call [12]: inactive; negative

CC1CN1P(=O)(N1CC1C)N1CC1C (stereo not drawn)
mutagenic call (Test System: AMES SALMONELLA TYPHIMURIUM, Strain/Indicator: G46, Metabolic Activation: HOST MEDIATED, Method: STANDARD PLATE): active; positive

C=C[C@H]1CN2CC[C@H]1C[C@H]2[C@H](OC(=O)OCC)c1ccnc2ccc(OC)cc12
mutagenic call [5]: inactive; negative
mutagenic call (Test System: AMES SALMONELLA TYPHIMURIUM, Strain/Indicator: TA98, Metabolic Activation: RAT, LIVER, S-9, Method: PREINCUBATION): inactive; negative
mutagenic call [7]: inactive; negative
mutagenic call (Test System: AMES SALMONELLA TYPHIMURIUM, Strain/Indicator: TA100, Metabolic Activation: RAT, LIVER, S-9, Method: PREINCUBATION): inactive; negative

O[C@H]1[C@H]2O[C@H]2c2c(ccc3ccc4ccccc4c23)[C@@H]1O
mutagenic call (Test System: E. COLI, Strain/Indicator: CL101P, Metabolic Activation: NONE, Method: PREINCUBATION): active; positive
mutagenic call (Test System: E. COLI, Strain/Indicator: CL102P, Metabolic Activation: NONE, Method: PREINCUBATION): active; positive
mutagenic call (Test System: E. COLI, Strain/Indicator: CL103P, Metabolic Activation: NONE, Method: PREINCUBATION): active; positive
mutagenic call (Test System: E. COLI, Strain/Indicator: CL104P, Metabolic Activation: NONE, Method: PREINCUBATION): active; positive
mutagenic call (Test System: E. COLI, Strain/Indicator: CL105P, Metabolic Activation: NONE, Method: PREINCUBATION): active; positive
mutagenic call (Test System: E. COLI, Strain/Indicator: CL106P, Metabolic Activation: NONE, Method: PREINCUBATION): active; positive
